Literature values as cited in patent US8952066B2, “Pharmaceutical/cosmetic, E.G., anti-acne compositions comprising at least one naphthoic acid compound, benzoyl peroxide and at least one film-forming agent” (Galderma Research & Development, priority 2007, dated 2015).
Like-named read-outs stand apart in the source and are kept apart here. Values belong to the compound of their own block, whether it stands above or below them.

How the values were obtained:
[1] = in presence of the benzoyl peroxide-based formulation
[2] = 40° C.

Degradation of the retinoid (in words) ([1]; for 24 hours): no degradation
SMILES: COc1ccc(-c2ccc3cc(C(=O)O)ccc3c2)cc1C12CC3CC(CC(C3)C1)C2 [adapalene, 6-[3-(1-adamantyl)-4-methoxyphenyl]-2-naphthoic acid]

SMILES: O=C(OOC(=O)c1ccccc1)c1ccccc1 [benzoyl peroxide]
Degradation time ([2]; in PEG 400 (0.5 mg/g)): 1.4 days | Degradation time ([2]; in ethanol): 29 days | Degradation time ([2]; in propylene glycol): 53 days

Degradation of the retinoid ([1]; in 2 hours): 50% | Degradation of the retinoid ([1]; in 24 hours): 95%
SMILES: CC1=C(/C=C/C(C)=C/C=C/C(C)=C/C(=O)O)C(C)(C)CCC1 [tretinoin]
